Reference: PubChem BioAssay (NCI)
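Dose response: 5 concentrations. Exposure: 48 h. Format: 96-well plates. Endpoint: linear interpolation; highest concentration if not reached. TGI denotes the concentration required for complete inhibition of growth.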

Columns and labels:
Assay in all cases: growth of human tumour cells (NCI), 48 h
[1] = test system: LOX IMVI melanoma
[2] = test system: 786-0 renal
[3] = test system: SNB-19 CNS
[4] = test system: KM12 colon
[5] = test system: MCF7 breast
[6] = test system: NCI-H460 lung
[7] = test system: UACC-62 melanoma
[8] = test system: SW-620 colon
[9] = test system: SK-MEL-2 melanoma
[10] = test system: NCI/ADR-RES ovarian
[11] = test system: SK-MEL-5 melanoma
[12] = test system: M14 melanoma
[13] = test system: ACHN renal
[14] = test system: K-562 leukemia
[15] = test system: NCI-H23 lung
[16] = test system: HCT-116 colon
[17] = test system: SF-295 CNS
[18] = test system: HOP-92 NSCLC
[19] = test system: HCT-15 colon
[20] = test system: MDA-MB-231 breast
[21] = test system: SF-539 CNS
[22] = test system: UACC-257 melanoma
[23] = test system: COLO 205 colon
[24] = test system: HCC-2998 colon
[25] = test system: CCRF-CEM leukemia
[26] = test system: BT-549 breast
[27] = test system: U251 CNS
[28] = test system: TK-10 renal
[29] = test system: A549 NSCLC
[30] = test system: IGROV1 ovarian
[31] = test system: CAKI-1 renal
[32] = test system: EKVX NSCLC
[33] = test system: HOP-62 NSCLC
[34] = test system: MOLT-4 leukemia
[35] = test system: RPMI-8226 leukemia
[36] = test system: SNB-75 CNS
[37] = test system: OVCAR-8 ovarian
[38] = test system: NCI-H522 lung
[39] = test system: T-47D breast
[40] = test system: UO-31 renal
[41] = test system: SR leukemia
[42] = test system: SF-268 CNS
[43] = test system: OVCAR-4 ovarian
[44] = test system: SK-OV-3 ovarian
[45] = test system: OVCAR-5 ovarian
[46] = test system: SN12C renal
[47] = test system: HT29 colon
[48] = test system: PC-3 prostate
[49] = test system: RXF 393 renal
[50] = test system: DU-145 prostate
[51] = test system: OVCAR-3 ovarian
[52] = test system: MALME-3M melanoma
[53] = test system: SK-MEL-28 melanoma
[54] = test system: MDA-MB-435
[55] = test system: HL-60(TB) leukemia
[56] = test system: HS 578T breast
[57] = test system: NCI-H226 lung

SMILES: CC(=O)O[C@H]1C(=O)[C@@]2(C)C(C(OC(=O)c3ccccc3)[C@]3(O)CC(OC(=O)C(O)C(NC(=O)c4ccccc4)c4ccc(F)cc4)C(C)=C1C3(C)C)[C@]1(OC(C)=O)CO[C@@H]1C[C@@H]2O (some centres undefined)
- TGI [1]: > 10 µM
- TGI [2]: > 10 µM
- TGI [3]: > 10 µM
- TGI [4]: > 5.45 µM
- TGI [5]: > 10 µM
- TGI [6]: > 10 µM
- TGI [7]: > 10 µM
- TGI [8]: > 10 µM
- TGI [9]: 3.27 µM
- TGI [10]: > 4.04 µM
- TGI [11]: > 3.32 µM
- TGI [12]: > 7.03 µM
- TGI [13]: > 10 µM
- TGI [14]: > 10 µM
- TGI [15]: > 10 µM
- TGI [16]: 0.103 µM
- TGI [17]: 1.42 µM
- TGI [18]: > 10 µM
- TGI [19]: > 10 µM
- TGI [20]: 0.608 µM
- TGI [21]: 0.00307 µM
- TGI [22]: > 10 µM
- TGI [23]: 0.0755 µM
- TGI [24]: 0.0193 µM
- TGI [25]: > 10 µM
- TGI [26]: > 10 µM
- TGI [27]: > 10 µM
- TGI [28]: > 10 µM
- TGI [29]: > 10 µM
- TGI [30]: > 10 µM
- TGI [31]: > 10 µM
- TGI [32]: > 10 µM
- TGI [33]: > 10 µM
- TGI [34]: 2.73 µM
- TGI [35]: 2.09 µM
- TGI [36]: > 10 µM
- TGI [37]: > 10 µM
- TGI [38]: 1.34 µM
- TGI [39]: > 10 µM
- TGI [40]: > 10 µM
- TGI [41]: > 3.82 µM
- TGI [42]: > 10 µM
- TGI [43]: > 10 µM
- TGI [44]: > 10 µM
- TGI [45]: > 7.89 µM
- TGI [46]: > 10 µM
- TGI [47]: > 3.4 µM
- TGI [48]: > 10 µM
- TGI [49]: 0.0187 µM
- TGI [50]: 0.0104 µM

SMILES: Cc1ccc(SCC(OCn2cnc3c(N)ncnc32)[C@H](C)F)cc1 (some centres undefined)
- TGI [1]: > 100 µM
- TGI [2]: > 100 µM
- TGI [3]: > 100 µM
- TGI [4]: > 100 µM
- TGI [5]: > 100 µM
- TGI [6]: > 100 µM
- TGI [7]: > 100 µM
- TGI [8]: > 100 µM
- TGI [9]: > 100 µM
- TGI [10]: > 100 µM
- TGI [51]: > 100 µM
- TGI [11]: > 100 µM
- TGI [12]: > 100 µM
- TGI [13]: > 100 µM
- TGI [15]: > 100 µM
- TGI [16]: > 100 µM
- TGI [17]: > 100 µM
- TGI [18]: > 100 µM
- TGI [19]: > 100 µM
- TGI [20]: > 100 µM
- TGI [52]: > 100 µM
- TGI [21]: > 100 µM
- TGI [22]: > 100 µM
- TGI [23]: > 100 µM
- TGI [24]: > 100 µM
- TGI [53]: > 100 µM
- TGI [25]: > 100 µM
- TGI [26]: > 100 µM
- TGI [27]: > 100 µM
- TGI [28]: > 100 µM
- TGI [29]: > 100 µM
- TGI [30]: > 100 µM
- TGI [31]: > 100 µM
- TGI [54]: > 100 µM
- TGI [33]: > 100 µM
- TGI [34]: > 100 µM
- TGI [35]: > 100 µM
- TGI [36]: > 100 µM
- TGI [37]: > 100 µM
- TGI [38]: > 100 µM
- TGI [39]: > 100 µM
- TGI [55]: > 100 µM
- TGI [56]: > 100 µM
- TGI [40]: > 100 µM
- TGI [41]: > 100 µM
- TGI [42]: > 100 µM
- TGI [43]: > 100 µM
- TGI [44]: > 100 µM
- TGI [45]: > 100 µM
- TGI [46]: > 100 µM
- TGI [47]: > 100 µM
- TGI [57]: > 100 µM
- TGI [48]: > 100 µM
- TGI [50]: > 100 µM
